The record followed here is US20260317319A1, “NOVEL ERGOLINES AND METHODS OF TREATING MOOD DISORDERS” (Gilgamesh Pharma Inc., priority 2023, published 2026).

Data set [1] concerns the target T1, 5-HT2A receptor (Homo sapiens, UniProt P28223). Briefly: cell-based. Particulars: Ca2+ flux; for Emax: HEK293, agonist, HEK293, max dose, read-out: 5-HT2A % Act @ Max Dose; for EC50: agonist, HEK293. It counts as cell-based. Also noted: expressed in transfected cells; host or cells: HEK293, stably transfected. A digest of the protocol: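 Cells plated and incubated overnight at 37 °C, 5% CO2; Fluo-4 Direct dye with probenecid (final 2.5 mM) added, 50 min at 37 °C; test compounds transferred and Ca2+ signal recorded. HEK293 hosts for 5-HT2A/2B, CHO + Gα15 for 5-HT1A.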

A further data set deals with T2, 5-HT2B receptor (Homo sapiens, UniProt P41595).
T2 construct: expressed in transfected cells; host or cells: HEK293, stably transfected
Briefly: cell-based. The format is cell-based. Particulars: Ca2+ flux; for Emax: HEK293, agonist, HEK293, max dose, read-out: 5-HT2B % Act @ Max Dose; for EC50: agonist, HEK293. A digest of the protocol:
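FLIPR Tetra fluorescence read-out of calcium flux after compound addition. Receptor-expressing stable lines were used (HEK293 for 2A/2B; CHO with Gα15 for 1A), dye-loaded with Fluo-4 Direct and 2.5 mM final probenecid, 50 min at 37 °C.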

For data set [2], the target named is T1, 5-HT2A receptor. Briefly: biochemical. The format is binding. Also noted: expressed in transfected cells; host or cells: HEK293, stably transfected. The conditions noted are these: for potency in receptor binding: radioligand binding, 5-HT2A; for Ki: [3H]ketanserin 1 nM, HEK293 stable cell line, 1 h, 25 °C. A digest of the protocol:
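Affinity was measured in radioligand binding experiments using [^3H]ketanserin as the labelled ligand, following methods adapted from published procedures.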

A further data set addresses T3, 5-HT1B receptor (Homo sapiens, UniProt P28222).
T3 construct: expressed in transfected cells
Briefly: cAMP accumulation functional assay at 5-HT1B. The format is cell-based. The conditions noted are these: agonist, cAMP accumulation; for Emax: max dose, read-out: 5-HT1B % Act @ Max Dose. The protocol:
Functional Assay at 5-HT1B. Agonist activity at 5-HT1B was determined using a CAMP accumulation protocol at WuXi AppTec (Hong Kong) Limited according to their standard protocols. Briefly, stably transfected cells were plated in an OptiPlate-384 well plate, incubated at RT for 60 mins, and cAMP standard solution (800 nM, 10 μL) was added to the blank well. Then, 10 μL detection reagent was added to each well, the plate incubated for 60 mins at RT, and the plate read using En Vision.

A further data set addresses T4, 5-HT1A receptor (Homo sapiens, UniProt P08908).
T4 construct: expressed in transfected cells; host or cells: CHO cells, stably transfected
T4 sequence (P08908 1-422): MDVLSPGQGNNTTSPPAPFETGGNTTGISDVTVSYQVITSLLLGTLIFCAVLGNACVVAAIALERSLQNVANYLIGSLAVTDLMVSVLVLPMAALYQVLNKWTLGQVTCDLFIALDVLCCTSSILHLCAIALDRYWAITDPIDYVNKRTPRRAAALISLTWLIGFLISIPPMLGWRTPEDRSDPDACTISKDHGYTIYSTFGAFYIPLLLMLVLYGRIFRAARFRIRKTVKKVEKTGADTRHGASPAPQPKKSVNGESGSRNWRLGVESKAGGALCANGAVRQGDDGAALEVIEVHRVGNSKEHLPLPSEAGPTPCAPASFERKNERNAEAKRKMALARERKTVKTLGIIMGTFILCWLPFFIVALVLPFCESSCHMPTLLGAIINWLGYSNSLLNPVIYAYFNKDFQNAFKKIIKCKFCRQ
As to the kind of experiment: cell-based. The conditions noted are these: agonist, Ca2+ flux; for Emax: CHO, CHO cells with Gα15, max dose, read-out: 5-HT1A % Act @ Max Dose; for EC50: CHO cells with Gα15. A digest of the protocol:
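Receptor agonism was assessed as intracellular calcium mobilization in stably transfected cells, with CHO cells additionally carrying Gα15 for the 5-HT1A readout. Calcium was monitored with Fluo-4 Direct dye.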

Data set [3] can be described thus: in vitro. The format is in vitro ADME, human. The conditions noted are these: HLM 0.50 mg/mL, NADPH 1 mM, 1 μM compound, pH 7.4, 37° C., 60 min; for microsomal CLint / half-life: human, microsomes; for microsomal CLint: read-out: Intrinsic clearance (Clint); for half-life: read-out: half-life (t1/2).
Data set [4] can be described thus: in vitro. It counts as in vitro ADME, mouse. The conditions noted are these: MLM (male CD-1) 0.50 mg/mL, NADPH 1 mM, 1 μM compound, pH 7.4, 37° C., 60 min; for microsomal CLint / half-life: mouse, microsomes; for microsomal CLint: read-out: Intrinsic clearance (Clint); for half-life: read-out: half-life (t1/2). An excerpt:
MLM Stability Pooled MLM from male CD-1 mice (BIOIVT M00501) were used.

A short description of data set [5]: in vitro. It counts as in vitro ADME, rat. The conditions noted are these: RLM (male Sprague-Dawley) 0.50 mg/mL, NADPH 1 mM, 1 μM compound, pH 7.4, 37° C., 60 min; for microsomal CLint / half-life: rat, microsomes; for microsomal CLint: read-out: Intrinsic clearance (Clint); for half-life: read-out: half-life (t1/2). An excerpt:
RLM Stability Pooled RLM from male Sprague-Dawley rats (Xenotech R1000) were used.

For data set [6], the target named is T1, 5-HT2A receptor. As to the kind of experiment: cell-based. The conditions noted are these: agonist, beta-arrestin recruitment; for EC50: PathHunter, read-out: 5-HT2A Arrestin EC50; for Emax: max dose, read-out: 5-HT2A Arrestin % Act @ Max Dose. It counts as cell-based. On the procedure: Arrestin Functional Assay at 5-HT2A. Recruitment of beta-arrestin was determined using a PathHunter assay at Eurofins DiscoverX (Fremont, CA) according to their standard protocols. PathHunter GPCR beta-arrestin assays take advantage of DiscoverX's proprietary Enzyme Fragment Complementation technology. The GPCR is fused in frame with a small enzyme donor fragment ProLink™ (PK) and co-expressed in cells stably expressing a fusion protein of beta-arrestin and the larger, N-terminal deletion mutant of beta-galactosidase. Activation of the GPCR (5-HT2A receptor in this case) stimulates binding of beta-arrestin to the PK-tagged GPCR and forces complementation of the two enzyme fragments, resulting in the formation of an active beta-galactosidase enzyme. This interaction leads to an increase in enzyme activity that can be measured using chemiluminescent PathHunter Detection Reagents. Briefly, PathHunter cells expressing 5-HT2A receptors were seeded in a volume of 20 μL into 384-well plates and incubated at 37° C. for the appropriate time prior to testing. […] Plates were then imaged on a microplate reader and the agonist activity was calculated using the following formula: % Activity=100%×(mean RLU of test sample-mean RLU of vehicle control)/(mean MAX control ligand-mean RLU of vehicle control), where RLU=relative light units.

The structures appear in SMILES notation. Read-outs that look alike come from different tables or passages of the source.

T3 sequence (P28222 whole entry): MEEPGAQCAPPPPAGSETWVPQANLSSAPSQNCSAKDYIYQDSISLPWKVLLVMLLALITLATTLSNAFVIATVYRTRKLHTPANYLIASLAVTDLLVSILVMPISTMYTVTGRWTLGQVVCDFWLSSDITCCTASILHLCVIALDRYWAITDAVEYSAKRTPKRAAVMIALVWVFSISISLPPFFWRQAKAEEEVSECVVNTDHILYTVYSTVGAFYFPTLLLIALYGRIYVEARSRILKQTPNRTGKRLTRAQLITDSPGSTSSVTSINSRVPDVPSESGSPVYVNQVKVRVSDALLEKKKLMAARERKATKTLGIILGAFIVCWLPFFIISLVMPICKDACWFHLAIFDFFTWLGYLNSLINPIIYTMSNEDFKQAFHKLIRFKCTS
T2 sequence (P41595 whole entry): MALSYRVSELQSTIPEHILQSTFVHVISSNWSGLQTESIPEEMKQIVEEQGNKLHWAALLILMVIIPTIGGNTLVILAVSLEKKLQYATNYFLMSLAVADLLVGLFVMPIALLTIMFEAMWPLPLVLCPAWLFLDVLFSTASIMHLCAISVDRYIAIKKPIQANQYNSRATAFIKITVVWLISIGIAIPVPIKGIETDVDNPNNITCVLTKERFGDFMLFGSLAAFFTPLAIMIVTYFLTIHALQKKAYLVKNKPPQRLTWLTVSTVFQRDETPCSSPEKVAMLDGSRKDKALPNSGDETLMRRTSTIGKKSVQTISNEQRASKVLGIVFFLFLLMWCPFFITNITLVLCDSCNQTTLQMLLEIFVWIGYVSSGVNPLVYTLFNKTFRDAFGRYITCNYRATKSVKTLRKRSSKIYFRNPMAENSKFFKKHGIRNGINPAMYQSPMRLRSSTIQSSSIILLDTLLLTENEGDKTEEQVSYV
T1 sequence (P28223 whole entry): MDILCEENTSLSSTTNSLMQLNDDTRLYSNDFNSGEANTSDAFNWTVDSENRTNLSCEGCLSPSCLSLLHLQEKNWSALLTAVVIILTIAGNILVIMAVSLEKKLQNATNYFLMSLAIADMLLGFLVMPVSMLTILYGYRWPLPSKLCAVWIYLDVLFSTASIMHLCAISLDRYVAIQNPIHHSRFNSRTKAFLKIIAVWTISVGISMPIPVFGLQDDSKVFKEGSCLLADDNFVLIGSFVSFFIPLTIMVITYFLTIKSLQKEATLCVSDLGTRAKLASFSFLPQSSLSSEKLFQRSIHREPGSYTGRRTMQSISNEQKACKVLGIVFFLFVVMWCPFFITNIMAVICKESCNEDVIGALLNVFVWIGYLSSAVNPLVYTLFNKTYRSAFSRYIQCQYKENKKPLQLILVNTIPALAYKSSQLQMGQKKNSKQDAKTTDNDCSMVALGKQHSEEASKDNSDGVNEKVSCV

`CCN(CC)C(=O)[C@@H]1C=C2c3cccc4c3C(CN4)C[C@H]2N(C)C1` (mixture of isomers) [Compound 37, (6aR,9R)—N,N-diethyl-7-methyl-4,5,5a,6,6a,7,8,9-octahydroindolo[4,3-fg]quinoline-9-carboxamide]: the Emax on 5-HT2A receptor [1] is 76.4%; at 5-HT2B receptor it was 24.1%; on 5-HT1B receptor, 90.7%; on 5-HT1A receptor it was 109%. For the same compound, the “potency in receptor binding” value on 5-HT2A receptor [2] is “reduced in potency compared to their dehydro counterparts”.

Consider `CCN(CC)C(=O)[C@@H]1C=C2c3cccc4[nH]cc(c34)C[C@H]2N(Cc2ccc(F)c(OC)c2)C1` [Compound 60, (6aR,9R)—N,N-diethyl-7-(4-fluoro-3-methoxybenzyl)-4,6,6a,7,8,9-hexahydroindolo[4,3-fg]quinoline-9-carboxamide], for which the Emax on 5-HT2A receptor [1] came to 102%; at 5-HT2B receptor, 23.8%; on 5-HT1B receptor it was 31%; at 5-HT1A receptor, 53.1%. Besides, the EC50 on 5-HT2A receptor [1] was 1380 nM; at 5-HT2B receptor, greater than 100000 nM; on 5-HT1B receptor, greater than 10000 nM; on 5-HT1A receptor it was 36400 nM. The Ki on 5-HT2A receptor [2] was 6.18 nM. Moreover, the microsomal CLint came to 69.1 µL/min/mg in “in vitro [3]”, 295 µL/min/mg in “in vitro [4]” and 152 µL/min/mg in “in vitro [5]”. Also, the half-life in the data set “in vitro [3]” came out at 20.1 min; in the data set “in vitro [4]” it was 4.7 min; in “in vitro [5]” it was 9.1 min.

With `CCN(CC)C(=O)[C@@H]1C=C2c3cccc4[nH]cc(c34)C[C@H]2N(Cc2ccncc2)C1` [Compound 51, (6aR,9R)—N,N-diethyl-7-(pyridin-4-ylmethyl)-4,6,6a,7,8,9-hexahydroindolo[4,3-fg]quinoline-9-carboxamide], the Emax is 102% at 5-HT2A receptor [1], 19.3% at 5-HT2B receptor, 89.1% at 5-HT1B receptor and 100% on 5-HT1A receptor. Further, the EC50 was 97.8 nM on 5-HT2A receptor [1], greater than 100000 nM on 5-HT2B receptor, 190 nM on 5-HT1B receptor and 1460 nM on 5-HT1A receptor. Also, affinity at 5-HT2A receptor [2] was put at a Ki of 15.6 nM. Further, the microsomal CLint in the data set “in vitro [3]” turned out to be 34.3 µL/min/mg; in “in vitro [4]”, 480 µL/min/mg; in the data set “in vitro [5]”, 73.6 µL/min/mg. In addition, the half-life in “in vitro [3]” worked out at 40.4 min; in the data set “in vitro [4]”, 2.9 min; in the data set “in vitro [5]”, 18.8 min.

For `CCCN1C[C@H](C(=O)N(CC)CC)C=C2c3cccc4c3C(CN4)C[C@H]21` (mixture of isomers) [Compound 36, (6aR,9R)—N,N-diethyl-7-propyl-4,5,5a,6,6a,7,8,9-octahydroindolo[4,3-fg]quinoline-9-carboxamide], the Emax was 77.5% at 5-HT2A receptor [1], 111% at 5-HT2B receptor, 97.5% on 5-HT1B receptor and 88.7% at 5-HT1A receptor. The “potency in receptor binding” value at 5-HT2A receptor [2] is on record as “reduced in potency compared to their dehydro counterparts”.

As for `CCN(CC)C(=O)[C@@H]1C=C2c3cccc4[nH]cc(c34)C[C@H]2N(Cc2cccnc2)C1` [Compound 55, (6aR,9R)—N,N-diethyl-7-(pyridin-3-ylmethyl)-4,6,6a,7,8,9-hexahydroindolo[4,3-fg]quinoline-9-carboxamide], the Emax at 5-HT2A receptor [1] is 87.8%; at 5-HT2B receptor, 25.7%; at 5-HT1B receptor, 82.5%; on 5-HT1A receptor, 108%. In addition, the EC50 is 158 nM at 5-HT2A receptor [1], greater than 100000 nM on 5-HT2B receptor, 575 nM at 5-HT1B receptor and 4090 nM at 5-HT1A receptor. Besides, at 5-HT2A receptor [2], the Ki is 39.7 nM. Also, the figures for the microsomal CLint in the data set “in vitro [3]”, in the data set “in vitro [4]” and in the data set “in vitro [5]” were 56 µL/min/mg, 543 µL/min/mg and 103 µL/min/mg, respectively. The half-life is 24.8 min in “in vitro [3]”, 2.6 min in the data set “in vitro [4]” and 13.4 min in “in vitro [5]”.

Regarding `CCN(CC)C(=O)[C@@H]1C=C2c3cccc4[nH]cc(c34)C[C@H]2N(Cc2ccccn2)C1` [Compound 22, (6aR,9R)—N,N-diethyl-7-(pyridin-2-ylmethyl)-4,6,6a,7,8,9-hexahydroindolo[4,3-fg]quinoline-9-carboxamide], the Emax on 5-HT2A receptor [1] stood at 64.5%; on 5-HT2B receptor, 7.74%; on 5-HT1B receptor, 89.2%; on 5-HT2A receptor [6] it was 40.6%; on 5-HT1A receptor, 57.3%. For the same compound, the concentration for a half-maximal effect (EC50) at 5-HT2A receptor [6] was found to be 6.33 nM. The “Intrinsic clearance (Clint)” value amounted to 58.2 µL/min/mg in the data set “in vitro [3]”, 150.0 µL/min/mg in the data set “in vitro [4]” and 104.8 µL/min/mg in “in vitro [5]”. In addition, the “half-life (t1/2)” value in the data set “in vitro [3]” is reported as 23.8 min; in the data set “in vitro [4]”, 9.2 min; in the data set “in vitro [5]”, 13.2 min.

Consider `CCN(CC)C(=O)[C@@H]1C=C2c3cccc4[nH]cc(c34)C[C@H]2N(CCc2cccc(OC)c2)C1` [Compound 20, (6aR,9R)—N,N-diethyl-7-(3-methoxyphenethyl)-4,6,6a,7,8,9-hexahydroindolo[4,3-fg]quinoline-9-carboxamide], for which the Emax on 5-HT2A receptor [1] worked out at 77.2%; at 5-HT2B receptor, 3.6%; on 5-HT1B receptor, 34.6%; on 5-HT2A receptor [6] it was 83.5%; at 5-HT1A receptor it was 3.85%. Besides, the EC50 at 5-HT2A receptor [6] was 1.79 nM. The “Intrinsic clearance (Clint)” value in the data set “in vitro [3]” was 649.2 µL/min/mg; in the data set “in vitro [4]”, 1548.2 µL/min/mg; in “in vitro [5]”, 1147.6 µL/min/mg. Moreover, the “half-life (t1/2)” value in “in vitro [3]” is 2.1 min; in “in vitro [4]”, 0.9 min; in “in vitro [5]”, 1.2 min.
